From article PMC4065883 (European journal of medicinal chemistry, 2014)
Entries after “also recorded” stand apart in the source; their conditions may differ. Read-outs that look alike come from different tables or passages of the source.

Tests used:
[1] = Peroxyl; conditions: compound 1 mM, BMPO 10 mM
[2] = target: T1, Acetylcholinesterase from bovine erythrocytes (Bos taurus, UniProt P23795); assay type: biochemical
T1 sequence (P23795 31-614 isoform P23795-2 limits assumed): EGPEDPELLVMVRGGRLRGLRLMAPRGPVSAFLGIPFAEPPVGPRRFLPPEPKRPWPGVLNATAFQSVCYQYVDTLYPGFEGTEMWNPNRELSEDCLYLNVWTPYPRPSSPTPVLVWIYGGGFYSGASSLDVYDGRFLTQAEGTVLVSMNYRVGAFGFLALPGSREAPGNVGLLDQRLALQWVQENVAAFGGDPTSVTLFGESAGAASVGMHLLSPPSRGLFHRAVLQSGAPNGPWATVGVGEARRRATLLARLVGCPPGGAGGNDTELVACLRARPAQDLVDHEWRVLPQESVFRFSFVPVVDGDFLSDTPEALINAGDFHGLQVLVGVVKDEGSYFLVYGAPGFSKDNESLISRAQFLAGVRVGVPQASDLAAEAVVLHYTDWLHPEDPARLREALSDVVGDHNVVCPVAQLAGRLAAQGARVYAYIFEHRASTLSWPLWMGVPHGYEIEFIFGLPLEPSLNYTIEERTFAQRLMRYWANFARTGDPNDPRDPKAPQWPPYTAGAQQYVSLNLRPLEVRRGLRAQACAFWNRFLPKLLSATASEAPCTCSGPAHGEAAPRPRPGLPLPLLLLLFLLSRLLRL

[3] = tested on: MC65 cells; conditions: MTT
[4] = ROS scavenging activity, radical type not specified, BMPO spin trap EPR; conditions: compound 1 mM, BMPO 10 mM
[5] = Hydroxyl radical scavenging, BMPO spin trap EPR; conditions: compound 1 mM, BMPO 10 mM

Row | Structure (SMILES) | peroxyl / superoxide radical scavenging activity (in words) [1] | AChEI activity (in words) [2] | protection against Aβ-induced cytotoxicity (in words) [3] | ROS scavenging activity (in words) [4] | hydroxyl radical scavenging activity (in words) [5] | peroxyl / superoxide radical scavenging activity (in words) ([1]; listed as 20) | protection against Aβ-induced cytotoxicity (in words) ([3]; listed as 9)
1 | CN1C(C)(C)Cc2nc3ccccc3c(N)c2C1(C)C [24b, 1,1,2,3,3-pentamethyl-1,2,3,4-tetrahydrobenzo[b][1,6]naphthyridin-10-amine] | lack peroxyl radical scavenging activity | limited AChEI activity | notable protective activity | – | – | – | –
2 | CC1(C)CC(n2cc(CN3CCN(c4c5c(nc6ccccc46)CCCC5)CC3)nn2)CC(C)(C)N1[O] [compound 12, 2,2,6,6-Tetramethyl-4-{4-[4-(1,2,3,4-tetrahydroacridin-9-yl)piperazin-1-ylmethyl]-1H-1,2,3-triazol-1-yl}piperidin-1-yloxyl Radical] | excellent | less AChEI activity than compound 1b; also recorded: active; also recorded: most efficient AChE inhibitors | protection against Aβ-induced cytotoxicity; also recorded: remarkable cell protection | remarkable ROS scavenging activity; also recorded: most efficient | – | – | –
3 | C#CCN1CCN(c2c3c(nc4ccccc24)CCCC3)CC1 [compound 10, 9-[4-(prop-2-yn-1-yl)piperazin-1-yl]-1,2,3,4-tetrahydroacridine] | limited; also recorded: lack peroxyl radical scavenging activity | less AChEI activity than compound 1b | do not provide any significant level of cell protection | – | limited | – | –
4 | Cl.Nc1c2c(nc3ccccc13)CCCC2 [1/HCl, reference compound] | limited | – | do not exhibit any protection | – | limited | – | –
5 | CC1(C)C=C(CNc2c3c(nc4ccccc24)CCCC3)CC(C)(C)N1[O] [compound 5, 2,2,6,6-Tetramethyl-4-[(1,2,3,4-tetrahydroacridin-9-yl)aminomethyl]-1,2,3,6-tetrahydropyridin-1-yloxyl Radical] | excellent | less AChEI activity than compound 1b | protection against Aβ-induced cytotoxicity | remarkable ROS scavenging activity | – | – | –
6 | CC1(C)C=C(CNc2c3c(nc4ccccc24)CCCC3)C(C)(C)N1[O] [4b, 2,2,5,5-Tetramethyl-3-[(1,2,3,4-tetrahydroacridin-9-yl)aminomethyl]-2,5-dihydro-1H-pyrrol-1-yloxyl Radical] | excellent | less AChEI activity than compound 1b | protection against Aβ-induced cytotoxicity | remarkable ROS scavenging activity | – | – | –
7 | CN1CCc2nc3ccccc3c(N)c2C1 [22b, 2-methyl-1,2,3,4-tetrahydrobenzo[b][1,6]naphthyridin-10-amine] | lack peroxyl radical scavenging activity | – | notable protective activity | – | – | – | –
8 | CC1(C)c2nc3ccccc3c(N)c2C(C)(C)N1[O] [20b, 9-amino-1,1,3,3-tetramethyl-1H-pyrrolo[3,4-b]quinolin-2(3H)-yloxyl Radical] | lack peroxyl radical scavenging activity | – | notable protective activity | – | – | excellent | –
9 | c1ccc2c(N3CCNCC3)c3c(nc2c1)CCCC3 [compound 7, 9-(Piperazin-1-yl)-1,2,3,4-tetrahydroacridine] | limited; also recorded: lack peroxyl radical scavenging activity | – | do not provide any significant level of cell protection | – | limited | – | –
10 | CC1(C)NC(C)(C)c2c1nc1ccccc1c2N [19b, 1,1,3,3-tetramethyl-2,3-dihydro-1H-pyrrolo[3,4-b]quinolin-9-amine] | – | – | notable protective activity; also recorded: lower protective activity | – | – | – | –
11 | Nc1c2c(nc3ccccc13)CCCC2 [1b, 9-amino-1,2,3,4-tetrahydroacridine, reference compound] | limited; also recorded: lack peroxyl radical scavenging activity | – | – | no significant effect on the level of radical detected | limited | – | –
12 | CC1(C)Cc2nc3ccccc3c(N)c2C(C)(C)N1[O] [17b, 10-amino-1,1,3,3-tetramethyl-3,4-dihydrobenzo[b][1,6]naphthyridin-2(1H)-yloxyl Radical] | excellent | – | notable protective activity | – | superior | – | –
13 | COc1ccc(CN2CCN(c3c4c(nc5ccccc35)CCCC4)CC2)c(OC)c1OC [compound 13, 9-[4-(2,3,4-trimethoxybenzyl)piperazin-1-yl]-1,2,3,4-tetrahydroacridine] | lack peroxyl radical scavenging activity | – | notable protective activity | appreciable scavenging activity; also recorded: notable antioxidant activity | – | – | –
14 | CC1(C)Cc2nc3ccccc3c(N)c2C(C)(C)N1 [16b, 1,1,3,3-tetramethyl-1,2,3,4-tetrahydrobenzo[b][1,6]naphthyridin-10-amine] | lack peroxyl radical scavenging activity | inactive | notable protective activity; also recorded: lower protective activity | – | – | – | –
15 | CC1(C)C=C(CN2CCN(c3c4c(nc5ccccc35)CCCC4)CC2)C(C)(C)N1[O] [9b, 2,2,5,5-Tetramethyl-3-[4-(1,2,3,4-tetrahydroacridin-9-yl)piperazin-1-ylmethyl]-2,5-dihydro-1H-pyrrol-1-yloxyl Radical] | excellent | less AChEI activity than compound 1b | protection against Aβ-induced cytotoxicity | remarkable ROS scavenging activity | – | – | remarkable cell protection
